Patent publication US20260226084A1, “DUAL RAF AND TUBULIN INHIBITORS AND METHODS OF USE THEREOF” (Deciphera Pharmaceuticals, LLC, priority 2023, published 2026)
Like-named read-outs stand apart in the source and are kept apart here.

How the values were obtained:
[1] = biological target: T1, B-Raf kinase (SEQ ID NO: 1) (Homo sapiens, UniProt P15056); test: Biochemical Assay for B-Raf (coupled pyruvate kinase/lactate dehydrogenase assay)
T1 construct: GST (N); purchased Sigma

[2] = biological target: T2, C-Raf kinase (SEQ ID NO: 2) (Homo sapiens, UniProt P04049, Y340D/Y341D); test: Biochemical Assay for C-Raf (coupled pyruvate kinase/lactate dehydrogenase assay)
T2 construct: C-Raf residues 306-end; Y340D, Y341D with; GST (N); purchased Sigma
T2 sequence (P04049 307-648 Y340D/Y341D): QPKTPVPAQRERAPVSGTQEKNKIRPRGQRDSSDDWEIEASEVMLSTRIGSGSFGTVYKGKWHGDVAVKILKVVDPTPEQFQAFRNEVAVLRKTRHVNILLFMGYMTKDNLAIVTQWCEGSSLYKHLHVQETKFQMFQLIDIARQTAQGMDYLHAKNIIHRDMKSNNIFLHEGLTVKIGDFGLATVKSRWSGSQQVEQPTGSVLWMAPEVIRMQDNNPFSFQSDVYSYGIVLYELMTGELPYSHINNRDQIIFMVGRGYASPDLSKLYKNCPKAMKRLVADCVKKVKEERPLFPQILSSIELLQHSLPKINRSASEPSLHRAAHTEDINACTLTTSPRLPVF

[3] = tested on: tubulin polymerization in HCT-116 cells; test: Cellular Tubulin Polymerization Assay; format: cell-based; settings: Homo sapiens, Table 5, read-out: Tubulin Cellular
Procedure: HCT-116 cells (catalog #CCL-247) are obtained from the American Type Culture Collect (ATCC, Manassas, VA). Briefly, cells are grown in McCoy's 5A supplemented with 10% characterized fetal bovine serum (Invitrogen, Carlsbad, CA) and 1% Penicillin/Streptomycin/L-Glutamine at 37° C., 5% CO2, and 95% humidity. Cells are expanded until reaching 70-95% confluency at which point they are subcultured or harvested for assay use. 450000 cells are added per well in 1500 μL complete growth medium in a tissue culture treated, 12-well plate. Plates are incubated for 18 to 24 h at 37° C., 5% CO2, and 95% humidity. At the end of the incubation, 2000 μL of base culture media is added to each well, followed by a serial dilution of compound. Plates are incubated for an additional 1 h at 37° C., 5% CO2, and 95% humidity. Lysates are generated by the addition of 100 μL Lysis and Microtubule Stabilization Buffer 1 (LMS01, Cytoskeleton Inc, Denver, CO) supplemented with GTP (BST06, Cytoskeleton Inc), ATP (BSA04, Cytoskeleton Inc), and Protease Inhibitor Cocktail Stock (PIC02, Cytoskeleton Inc). Cells are scraped off wells using a rubber cell scraper and collected in a clean 96-well plate. Lysates are centrifuged at 1000×g, 37° C. for 10 min and supernatant fraction is placed into an additional 96-well plate. The remaining pellet fraction is reconstituted in 100 μL LMS01 buffer and sonicated for 10 min. Pellet and Supernatant fractions are probed for α-tubulin via western blot analysis on the Jess System or equivalent (Bio-techne, Minneapolis, MN). Data is analyzed using Prism software (Graphpad, San Diego, CA) to calculate IC50values.

Porcine Brain Tubulin = biological target: T3, Porcine Brain Tubulin (Sus scrofa, UniProt P02550+P02554); test: Biochemical Tubulin Polymerization Assay
T3 construct: Porcine Brain Tubulin (T240); purchased Cytoskeleton, Inc T240; BK011P; host or cells: porcine brain (tissue-purified)
T3 sequence (P02550 whole entry): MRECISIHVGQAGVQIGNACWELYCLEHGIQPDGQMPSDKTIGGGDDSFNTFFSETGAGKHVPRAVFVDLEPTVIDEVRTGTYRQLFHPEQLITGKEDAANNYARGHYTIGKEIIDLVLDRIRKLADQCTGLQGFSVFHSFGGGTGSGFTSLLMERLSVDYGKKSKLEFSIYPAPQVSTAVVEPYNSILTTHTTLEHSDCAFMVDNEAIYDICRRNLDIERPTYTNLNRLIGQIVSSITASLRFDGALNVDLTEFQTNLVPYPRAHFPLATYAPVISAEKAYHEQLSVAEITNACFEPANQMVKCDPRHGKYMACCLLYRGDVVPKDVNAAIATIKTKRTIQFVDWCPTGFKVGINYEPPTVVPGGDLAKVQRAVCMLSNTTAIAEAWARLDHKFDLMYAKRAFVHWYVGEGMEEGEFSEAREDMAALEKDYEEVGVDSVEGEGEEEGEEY
T3 sequence (P02554 whole entry): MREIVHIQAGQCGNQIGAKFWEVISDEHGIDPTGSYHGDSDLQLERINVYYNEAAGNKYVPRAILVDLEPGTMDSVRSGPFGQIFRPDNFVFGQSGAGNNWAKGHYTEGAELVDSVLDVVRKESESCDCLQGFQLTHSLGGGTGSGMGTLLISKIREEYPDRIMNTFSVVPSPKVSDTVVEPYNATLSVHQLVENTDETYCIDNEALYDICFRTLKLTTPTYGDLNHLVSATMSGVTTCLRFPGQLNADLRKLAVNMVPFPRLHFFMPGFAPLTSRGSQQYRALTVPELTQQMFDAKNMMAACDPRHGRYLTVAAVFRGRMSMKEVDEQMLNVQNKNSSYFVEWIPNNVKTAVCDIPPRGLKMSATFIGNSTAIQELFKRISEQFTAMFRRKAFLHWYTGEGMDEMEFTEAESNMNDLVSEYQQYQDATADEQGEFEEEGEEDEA

MiaPaca-2 cells = test: MiaPaca-2 Cell Proliferation Assay; format: cell-based; settings: Homo sapiens
Method in brief: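 Viability was read as resazurin fluorescence (540 nm excitation, 600 nm emission) after 5–6 h with dye. Compounds were tested as serial dilutions in triplicate, with IC50 derived from the dose–response.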

HPAF-II cells = test: HPAF-II Cell Proliferation Assay; format: cell-based; settings: Homo sapiens
Method in brief: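 Viability read-out was resazurin fluorescence (540 nm excitation, 600 nm emission), developed 18–24 h after a 115–120 h compound exposure of 750 HPAF-II cells per well in MEM/10% FBS at 37 °C. Compound was tested as a serial dilution in triplicate, and IC50 values were calculated.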

Pa16c cells = test: Pa16c Cell Proliferation Assay; format: cell-based; settings: Table 2, read-out: Inhibition of cell proliferation in Pa16c (IC50 class)
Method in brief: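 Proliferation read-out: resazurin fluorescence (540 nm excitation, 600 nm emission) after an extra 18 to 24 h. Before that, compound dilution series (triplicate) stayed on 750 Pa16c cells/well in complete DMEM/10% FBS for 67 to 72 h at 37° C. IC50 values derived from the curves.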

HCT-116 cells = test: HCT-116 Cell Proliferation Assay; format: cell-based; settings: Homo sapiens
Method in brief: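 IC50 values come from resazurin fluorescence (540 nm excitation, 600 nm emission) added for 4 to 5 h after compound treatment. Treatment: serially diluted compound in triplicate on 375 HCT-116 cells per well in complete McCoy's 5A/10% FBS, 67 to 72 hours, 37 °C, 5% CO2.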

[4] = 1 mM ATP, read-out: BRAF (inhibition of biochemical activity, IC50)
[5] = Table 3, read-out: BRAF (IC50 class)
[6] = MIA PaCa-2, MiaPaca-2 cells, Table 2, read-out: Inhibition of cell proliferation in MiaPaca-2 (IC50 class)
[7] = MIA PaCa-2, Table 3, read-out: MiaPaca-2 (IC50 class)
[8] = 1 mM ATP, read-out: CRAF (inhibition of biochemical activity, IC50)
[9] = Table 3, read-out: CRAF (IC50 class)
[10] = HPAF-II, HPAF-II cells, Table 2, read-out: Inhibition of cell proliferation in HPAF-II (IC50 class)
[11] = HPAF-II, Table 3, read-out: HPAF-II (IC50 class)
[12] = HCT-116, HCT-116 cells, Table 2, read-out: Inhibition of cell proliferation in HCT-116 (IC50 class)
[13] = HCT-116, Table 3, read-out: HCT-116 (IC50 class)
[14] = Table 3, Tubulin Biochemical assay, read-out: Tubulin Biochem (IC50 class)
[15] = MIA PaCa-2, Table 5, MiaPaca-2 mutant KRAS pancreatic cancer cell line, read-out: MiaPaca-2
[16] = Table 5, HPAF-II mutant KRAS pancreatic cancer cell line, read-out: HPAF-II
[17] = Table 5, HCT-116 mutant KRAS colorectal cancer cell line, read-out: HCT-116

T1 sequence (P15056 416-766): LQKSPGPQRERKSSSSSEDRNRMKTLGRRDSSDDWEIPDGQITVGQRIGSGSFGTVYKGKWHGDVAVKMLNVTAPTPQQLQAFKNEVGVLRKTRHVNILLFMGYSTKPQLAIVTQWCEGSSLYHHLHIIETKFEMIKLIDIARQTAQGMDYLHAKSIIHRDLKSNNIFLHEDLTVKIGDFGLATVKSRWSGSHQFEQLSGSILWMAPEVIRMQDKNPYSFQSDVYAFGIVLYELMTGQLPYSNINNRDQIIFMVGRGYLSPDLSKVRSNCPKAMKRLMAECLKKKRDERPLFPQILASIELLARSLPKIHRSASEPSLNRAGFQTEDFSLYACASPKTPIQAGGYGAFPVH

IC50 [3] [nM]	IC50 [1, 4] [nM]	IC50 [1, 5] [nM]	IC50 (MiaPaca-2 cells; [6]) [nM]	IC50 (MiaPaca-2 cells; [7]) [nM]	IC50 [2, 8] [nM]	IC50 [2, 9] [nM]	IC50 (HCT-116 cells; [12]) [nM]	IC50 (HCT-116 cells; [13]) [nM]	IC50 (Porcine Brain Tubulin; [14]) [nM]	SMILES	IC50 (HPAF-II cells; [10]) [nM]	IC50 (HPAF-II cells; [11]) [nM]	IC50 (Pa16c cells) [nM]	also measured
1000 to 10000										Cc1ccc2c(Nc3cccc(Cl)c3F)nccc2c1NC(=O)c1csc2c(N)ncnc12 [Belvarafenib, reference compound]				IC50 ([1]; Table 5, previously disclosed BRAF/CRAF inhibitors, read-out: BRAF): < 100 nM; IC50 ([2]; Table 5, previously disclosed BRAF/CRAF inhibitors, read-out: CRAF): < 100 nM; IC50 (Porcine Brain Tubulin; Table 5, previously disclosed BRAF/CRAF inhibitors, read-out: Tubulin Biochem): > 100000 nM
1000 to 10000										CC(C)(C)c1nc(-c2cccc(NS(=O)(=O)c3c(F)cccc3F)c2F)c(-c2ccnc(N)n2)s1 [Dabrafenib, dabrafenib]				
	< 100	< 100	100 to 500	100 to 500	< 100	< 100	< 100	< 100	3000 to 20000	Cc1ccc(NC(=O)c2cc(C(F)(F)F)cnn2)cc1-c1cc(N[C@H](C)CO)nc(-c2ccnc(NC(=O)C3CC3)c2)c1 [Example 45]	< 100	< 100	100 to 500	
	< 100	< 100	100 to 500	100 to 500	< 100	< 100	< 100	< 100	< 3000	Cc1ccc(NC(=O)c2cc(C(C)(C)F)cnn2)cc1-c1ccnc(-c2ccnc(NC(=O)C3CC3)c2)c1 [Example 59]	100 to 500	100 to 500	100 to 500	
	< 100	< 100	100 to 500	100 to 500	< 100	< 100	< 100	< 100	> 100000	Cc1ccc(NC(=O)c2cncc(C(F)(F)F)c2)cc1-c1cncc(-c2cc(NC(=O)C3CC3)ncn2)c1 [Example 66]	< 100	< 100	500 to 1000	
	< 100	< 100	< 100	< 100	< 100	< 100	< 100	< 100	< 3000	Cc1ccc(NC(=O)c2cc(C(F)(F)F)cnn2)cc1-c1cc(N[C@H](C)CO)nc(-c2cn[nH]c2)c1 [Example 119]	< 100	< 100	< 100	
1000 to 10000										Cc1ccc(NC(=O)c2ccnc(C(F)(F)F)c2)cc1-c1cc(OCCO)nc(N2CCOCC2)c1 [Naporafenib]				
1000 to 10000										CCCS(=O)(=O)Nc1ccc(F)c(C(=O)c2c[nH]c3ncc(-c4ccc(Cl)cc4)cc23)c1F [Vemurafenib, vemurafenib]				

SMILES	IC50 [3] [nM]	IC50 [1, 4] [nM]	IC50 [1, 5] [nM]	IC50 (MiaPaca-2 cells; [6]) [nM]	IC50 (MiaPaca-2 cells; [7]) [nM]	IC50 [2, 8] [nM]	IC50 [2, 9] [nM]	IC50 (HCT-116 cells; [12]) [nM]	IC50 (HCT-116 cells; [13]) [nM]	IC50 (Porcine Brain Tubulin; [14]) [nM]	IC50 (HPAF-II cells; [10]) [nM]	IC50 (HPAF-II cells; [11]) [nM]	IC50 (Pa16c cells) [nM]	also measured
Cc1ccc(NC(=O)N2CC[C@@H](CC(F)(F)F)C2)cc1-c1cc(N[C@H](C)CO)nc(N2CCOCC2)c1 [Exarafenib, reference compound]	1000 to 10000													IC50 (MiaPaca-2 cells; [15]): 1000 to 10000 nM; IC50 (HPAF-II cells; [16]): 1000 to 10000 nM; IC50 (HCT-116 cells; [17]): 500 to 1000 nM
C[C@@H](NC(=O)c1ncnc(N)c1Cl)c1ncc(C(=O)Nc2cc(C(F)(F)F)c(Cl)cn2)s1 [Tovorafenib, reference compound]	1000 to 10000													IC50 (MiaPaca-2 cells; [15]): 1000 to 10000 nM; IC50 (HPAF-II cells; [16]): 1000 to 10000 nM; IC50 (HCT-116 cells; [17]): 1000 to 10000 nM
